Target: OGG1 (Homo sapiens (Human), UniProt O15527)
Assay: OGG1 inhibitor assay with fluorogenic OGR1 probe (base excision, initial rates)
Type: biochemical
Conditions: for Enzyme activity, % of control at 2 μM: 2 μM compound; for Enzyme activity, % of control at 2 μM / Enzyme activity, % of control at 20 μM / Enzyme activity, % of control at 200 nM: ratio of initial rate slope (first 12 min) to no-compound control; for Enzyme activity, % of control at 20 μM: 20 μM compound; for IC50: initial rates method
Protocol: Methods: Synthesized compounds and hOGG1 (100 nM) were incubated in NEBuffer 4 (1×) with BSA (1×) at 37° C. (15 min) in 100 μL reaction volumes in a black 96-well plate. (See, e.g., Edwards, S. K., et al., ChemBioChem 2015, 16, 1637-1646, the disclosure of which is incorporated herein by reference.) After that, OGR1 (1.2 μM) was added to the reaction mixture. Fluorescence at 460 nm was measured on a Thermo Fluoroskan Ascent FL fluorescence plate reader (λex=355 nm). The slope of initial rate (12 min) was calculated, and % of control was used for inhibition activity. BSA, hOGG1 and NEBuffer 4 were purchased from New England Biolabs and used. UltraPure Distilled Water (Invitrogen) was purchased and used for the assay.

Chain of OGG1 (O15527 whole entry): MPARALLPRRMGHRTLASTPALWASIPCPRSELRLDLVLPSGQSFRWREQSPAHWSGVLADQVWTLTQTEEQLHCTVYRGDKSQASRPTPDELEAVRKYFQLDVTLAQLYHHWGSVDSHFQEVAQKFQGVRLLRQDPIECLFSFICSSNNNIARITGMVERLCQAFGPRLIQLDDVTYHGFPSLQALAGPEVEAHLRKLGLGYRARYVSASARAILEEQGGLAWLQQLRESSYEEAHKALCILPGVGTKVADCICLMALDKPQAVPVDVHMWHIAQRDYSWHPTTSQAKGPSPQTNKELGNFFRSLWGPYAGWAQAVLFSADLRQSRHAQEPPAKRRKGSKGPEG

Structure (SMILES) | Enzyme activity, % of control at 2 μM | Enzyme activity, % of control at 20 μM | inhibition of activity at 200 nM (200 nM compound) | Enzyme activity, % of control at 200 nM (200 nM compound) | IC50 [nM]
CCOc1ccc(S(=O)(=O)Nc2ccc3c(c2)N(C(=O)C2CC2)CCO3)cc1 [Compound 15] | 90 % of control | 41 % of control |  |  | 
CCOc1ccc(C(=O)Nc2ccc3c(c2)N(C(=O)C2CC2)CCC3)cc1 [Compound 20] | ≥100 % of control | ≥100 % of control |  |  | 
CCOc1ccc(S(=O)(=O)Nc2ccc3c(c2)N(C(=O)C2CC2)CCCC3)cc1 [Compound 14] | 76 % of control | 35 % of control |  |  | 
O=C(C1CC1)N1CCCc2ccc(NS(=O)(=O)c3ccc(-c4cccnc4)cc3)cc21 [Compound 34] | 23 ± 1.5 % of control | 2.0 % of control | ca. 40% | 61 ± 1.3 % of control | 270
O=C(C1CC1)N1CCCc2ccc(NS(=O)(=O)c3ccc4oc5ccccc5c4c3)cc21 [Compound 29] | 82 % of control | 71 % of control |  |  | 
CCOc1ccc(S(=O)(=O)Nc2ccc3c(c2)N(C(=O)C2CCC2)CCC3)cc1 [Compound 8] | 69 % of control | 33 % of control |  |  | 
O=C(C1CC1)N1CCCc2ccc(NS(=O)(=O)c3ccc(-c4ccc(C(F)(F)F)cc4)cc3)cc21 [Compound 35] | 72 % of control |  |  | 97 % of control | 
CCOc1ccc(S(=O)(=O)Nc2ccc3c(c2)N(C(=O)C(C)(C)C)CCC3)cc1 [Compound 6] |  | ≥100 % of control |  |  | 
CCOc1ccc(S(=O)(=O)Nc2ccc3c(c2)N(C(=O)C2CC2)CCC3)cc1 [Compound 7] | 41 ± 1.7 % of control | 5.8 ± 1.9 % of control |  | 82 ± 12 % of control | 1100
CCOc1ccc(S(=O)(=O)Nc2ccc3c(c2)N(C(=O)CC)CCC3)cc1 [Compound 2] | 51 ± 1.4 % of control | 3.7 ± 0.83 % of control |  |  | 
CCOc1ccc(S(=O)(=O)N(C)c2ccc3c(c2)N(C(=O)C2CC2)CCC3)cc1 [Compound 19] | 84 % of control | 79 % of control |  |  | 
CCOc1ccc(S(=O)(=O)Nc2ccc3c(c2)N(C(=O)C(C)C)CCC3)cc1 [Compound 5] | 96 % of control | 52 % of control |  |  | 
CCOc1ccc(S(=O)(=O)Nc2cc3c(cc2OC)CCCN3C(=O)C2CC2)cc1 [Compound 16] | ≥100 % of control | 93 % of control |  |  | 
CCOc1ccc(S(=O)(=O)Nc2ccc3c(c2)N(C(=O)CCOC)CCC3)cc1 [Compound 4] | 93 % of control | 51 % of control |  |  | 
CN(C)c1cccc(-c2ccc(S(=O)(=O)Nc3ccc4c(c3)N(C(=O)C3CC3)CCC4)cc2)c1 [Compound 38] |  |  |  | 70 % of control | 
CCOc1ccc(S(=O)(=O)Nc2ccc3c(c2)N(C(=O)CC)CC3)cc1 [Compound 13] | 95 % of control | ≥100 % of control |  |  | 
O=C(C1CC1)N1CCCc2ccc(NS(=O)(=O)c3ccc(N4CCOCC4)cc3)cc21 [Compound 32] | 76 % of control |  |  | 84 % of control | 
CSc1ccc(S(=O)(=O)Nc2ccc3c(c2)N(C(=O)C2CC2)CCC3)cc1 [Compound 26] | 53 % of control | 3.6 % of control |  | 75 % of control | 
CCOc1ccc(S(=O)(=O)Nc2ccc3c(c2)CN(C(=O)C2CC2)CC3)cc1 [Compound 17] | 94 % of control | 88 % of control |  |  | 
CCCc1ccc(S(=O)(=O)Nc2ccc3c(c2)N(C(=O)C2CC2)CCC3)cc1 [Compound 23] | 35 % of control | 14 % of control |  | 74 % of control | 

Structure (SMILES) | Enzyme activity, % of control at 2 μM | Enzyme activity, % of control at 20 μM | inhibition of activity at 200 nM (200 nM compound) | Enzyme activity, % of control at 200 nM (200 nM compound) | IC50 [nM]
CCNc1ccc(S(=O)(=O)Nc2ccc3c(c2)N(C(=O)C2CC2)CCC3)cc1 [Compound 25] | 58 % of control | 10 % of control |  | ≥100 % of control | 
CCOc1ccc(NC(=O)Nc2ccc3c(c2)N(C(=O)C2CC2)CCC3)cc1 [Compound 21] | ≥100 % of control | ≥100 % of control |  |  | 
CCCOc1ccc(S(=O)(=O)Nc2ccc3c(c2)N(C(=O)C2CC2)CCC3)cc1 [Compound 24] | 19 % of control |  |  | 95 % of control | 
CCOc1ccc(S(=O)(=O)Nc2ccc3c(c2)N(S(=O)(=O)CC)CCC3)cc1 [Compound 9] | 96 % of control | 92 % of control |  |  | 
O=C(C1CC1)N1CCCc2ccc(NS(=O)(=O)c3ccc(-n4cccn4)cc3)cc21 [Compound 33] | 45 ± 1.3 % of control | 14 ± 3.2 % of control |  | 81 % of control | 
CCOc1ccc(S(=O)(=O)Nc2cccc(NC(C)=O)c2)cc1 [Compound 12] | 96 % of control | 70 % of control |  |  | 
CCOc1ccc(S(=O)(=O)Nc2ccc3c(c2)N(C(=O)Cc2ccccc2)CCC3)cc1 [Compound 3] | ≥100 % of control | 79 % of control |  |  | 
CCOc1ccc(S(=O)(=O)Nc2ccc3c(c2)N(C(=O)C2CC2)CCC3)cc1C [Compound 27] | 71 % of control | 22 % of control |  |  | 
CCC(=O)N1CCCc2ccc(NS(=O)(=O)CC)cc21 [Compound 22] | 94 % of control | 74 % of control |  |  | 
COc1cccc(-c2ccc(S(=O)(=O)Nc3ccc4c(c3)N(C(=O)C3CC3)CCC4)cc2)c1 [Compound 37] | 13 % of control |  |  | 67 % of control | 
NNC(=O)c1sc2cccc(Cl)c2c1Cl [Compound O8, reference compound] | 69 % of control | 45 % of control |  |  | 
CCOc1ccc(S(=O)(=O)Nc2ccc3c(c2)N(CC2CC2)CCC3)cc1 [Compound 11] | ≥100 % of control | 83 % of control |  |  | 
CCOc1ccc(S(=O)(=O)Nc2ccc3c(c2)N(C(=O)NC2CC2)CCC3)cc1 [Compound 10] | 87 % of control | 77 % of control |  |  | 
COc1ccc(-c2ccc(S(=O)(=O)Nc3ccc4c(c3)N(C(=O)C3CC3)CCC4)cc2)cc1 [Compound 36] | 31 % of control |  |  | 79 % of control | 
O=C(C1CC1)N1CCCc2ccc(NS(=O)(=O)c3ccc(-c4ccccc4)cc3)cc21 [Compound 30] | 29 ± 7.0 % of control |  |  | 90 ± 6.2 % of control | 
CCOc1ccc(S(=O)(=O)N(O)c2ccc3c(c2)N(C(=O)C2CC2)CCC3)cc1 [Compound 18] | 79 % of control | 21 % of control |  | ≥100 % of control | 
O=C(C1CC1)N1CCCc2ccc(NS(=O)(=O)c3ccc(Oc4ccccc4)cc3)cc21 [Compound 28] | 41 ± 2.0 % of control | 8.3 % of control |  | ≥100 % of control | 1500
O=C(C1CC1)N1CCCc2ccc(NS(=O)(=O)c3ccc(C4CCCCC4)cc3)cc21 [Compound 31] | 25 % of control |  |  | 87 % of control | 
CNC(=O)c1cccc(-c2ccc(S(=O)(=O)Nc3ccc4c(c3)N(C(=O)C3CC3)CCC4)cc2)c1 [Compound 40] |  |  |  | 48 % of control | 

Reference: patent publication US11440887B2, “Substituted 1,2,3,4-tetrahydroquinolines as inhibitors of repair enzyme 8-oxoguanine deoxyribonucleic acid glycosylase activity” (The Board of Trustees of the Leland Stanford Junior …, priority 2017, dated 2022)
